From patent publication US12642776B2, “Anticoccidial composition comprising stilbene-based compound, and use thereof” (CJ CHEILJEDANG CORPORATION, priority 2020, dated 2026)
Marks after values point to notes of the source that are not given here.

Key:
[1] = system: Eimeria tenella protozoan (sporozoite); test: Direct killing effect against Eimeria tenella protozoan (sporozoite), microscopic count of alive sporozoites; settings: for concentration showing death rate of 50% or more against the protozoan: tested 16 to 500 ppm
Method: In the present example, protozoan (sporozoite) direct killing ability evaluation was conducted against 1 representative Eimeria kind known to be infected in most farms (E. tenella).
A certain amount of oocysts of each coccidial protozoan was put in a tube containing glass beads and pulverized, and then to remove the crushed oocyst cell wall and other debris, internal sporocysts were purified using the percoll density gradient, and washed with PBS solution. A reagent comprising sodium taurocholic acid (Sigma aldrich, USA) and trypsin (Gibco, USA), respectively, was treated to sporocysts of Eimeria tenella for excystation of the internal sporozoites, and they were incubated, and then they were washed with PBS solution once and the protozoa were obtained.
After reacting the pterostilbene, pinostilbene and anticoccidial agents, diclazuril and gallic acid (hereinafter, material) with the protozoan of Eimeria tenella at various concentrations of 16 to 500 ppm, respectively, only alive protozoa (sporozoites) were counted through microscopic observation.

Eimeria tenella = test: In vivo anticoccidial efficacy evaluation in broilers challenge-inoculated with Eimeria tenella; design: species or system Ross broilers; key to ACI: ACI out of 200 points; higher = better; ≥160 very excellent; Lesion index / Oocyst index: scale not given here; settings: for Survival rate after challenge inoculation (%): Eimeria tenella-infected broilers, 10,000 oocysts oral, up to 8th day after challenge; for Survival rate after challenge inoculation (%) / BWG after challenge inoculation (g/d) / ACI / Lesion score / Oocyst index / Lesion index / Daily weight gain compared to negative control group (RWG, %): feed with salinomycin 60 ppm, resveratrol 125 ppm or pterostilbene 125 ppm; for BWG after challenge inoculation (g/d) / anticoccidial index: Eimeria tenella-infected broilers; for BWG after challenge inoculation (g/d): before challenge to 7th day after; for anticoccidial index: Table 5; for ACI: anticoccidial index by Equation 2, out of 200 points; for Lesion score: appendix lesion, scale 0-4, 8th day after challenge; for anticoccidial efficacy compared with salinomycin: comparison of anticoccidial index with salinomycin treatment group; for Oocyst index: index from oocyst excretion (%) compared to infected negative control group; for Lesion index: lesion score x 10; for Daily weight gain compared to negative control group (RWG, %): relative to non-infected negative control group
Method: An in vivo anticoccidial efficacy evaluation test was performed in an animal experiment facility in Gyeongsangnam-do, South Korea. One-day-old female Ross broilers were individually weighed and randomly divided into groups to use in an experiment. Matters and conditions for experimental design were described in Table 2.
A breeding farm was managed according to the Korean poultry breeding management guidelines. Cages and the breeding farm were cleaned and disinfected before starting the test. The temperature of […] and the humidity of 40 to 50% of the breeding farm were maintained, and it was continuously monitored. General feed was fed according to the nutritional requirements of broilers, and the mixing ratio was described in Table 3.
To the general feed (Table 3), each material (salinomycin (CAS No. 53003-10-4), resveratrol (sigma) or pterostilbene (sigma) was added at a concentration described in Table 4 below, respectively, and was self-mixed.
Antibiotics and supplements were not used in general feed and mixed feed, and no anticoccidial agent other than each material was added. Broilers were fed ad libitum throughout the experiment period. After putting 6 1-day-age broilers in cages randomly placed for each of the control group or test group and breeding, general feed was fed for 14 days, and then the mixed feed prepared above was ingested by dividing by control group or test group.
Coccidiosis induction was performed by oral inoculation (challenge inoculation) in an oral tube type of 10,000 oocysts (eggs) with over 90% mature (sporulation) Eimeria tenella per one individual to 21-day-old broilers.
The anticoccidial efficacy by test group designed in Example 1-2 above was shown as an anticoccidial index (ACI), and the anticoccidial index was calculated by Equation 2 below. The ACI score is out of 200 points, and the higher the ACI score, the more excellent the anticoccidial ability, and when it is 120 points or more to less than 140 points, it is determined that it is effective as an anticoccidial material, and when it is 140 points or more to less than 160 points, it is determined that it is excellent as an anticoccidial material, and when it is 160 points or more, it is determined that the anticoccidial effect is very excellent (Luis Miguel De Pablos et al., Anticoccidial activity of maslinic acid against infection with Eimeria tenella in chickens, Parasitol Res, 2010). Anticoccidial index(ACI)=(survival rate after challenge inoculation (%))+(daily weight gain compared to negative control group(RWG, %))−(lesion score×10)−(fecal oocyst excretion amount index) (Equation 2)
1) Survival rate: the number of dead individuals was recorded daily, and post mortem autopsy was performed to determine a cause of mortality, and the number of individuals who died due to causes other than coccidiosis was excluded. The survival rate (%) up to the 8th day after challenge inoculation was used for anticoccidial index calculation. The measured survival rate was described in Table 5 below.
2) Daily weight gain: body weight was measured for each cage before challenge inoculation with a protozoan into an individual and at the 7th day after challenge inoculation, and the difference was divided by the number of days to calculate the daily weight gain (ADG, g/d). ‘Daily weight gain compared to the negative control group (RWG, %)’ which was calculated by dividing the daily weight gain (ADG, average daily gain; g/d) of each experimental group by the weight gain (ADG, g/d) of the non-infected negative control group and multiplying by 100 was used for anticoccidial index calculation. The daily weight gain (ADG, g/d) measured in each control group and test group and the daily weight gain compared to the negative control group (RWG, %) were shown in Table 5 below.
3) Lesion scoring: On the 8th day after challenge inoculation, an autopsy was conducted for 6 broilers per cage, and the intestines were incised and opened. […]

| SMILES | Protozoal death rate by material treatment concentration (%) ([1]; 16 ppm) | Protozoal death rate by material treatment concentration (%) ([1]; 32 ppm) | Protozoal death rate by material treatment concentration (%) ([1]; 62 ppm) | Protozoal death rate by material treatment concentration (%) ([1]; 125 ppm) | Protozoal death rate by material treatment concentration (%) ([1]; 250 ppm) | Protozoal death rate by material treatment concentration (%) ([1]; 500 ppm) | concentration showing death rate of 50% or more against the protozoan [1] [ppm] | Survival rate after challenge inoculation (%) (Eimeria tenella) | BWG after challenge inoculation (g/d) (Eimeria tenella) | anticoccidial index (Eimeria tenella) [points] | ACI (Eimeria tenella) | Lesion score (Eimeria tenella) | anticoccidial efficacy compared with salinomycin (Eimeria tenella) | Oocyst index (Eimeria tenella) | Lesion index (Eimeria tenella) | Daily weight gain compared to negative control group (RWG, %) (Eimeria tenella) [%] |
| --- | --- | --- | --- | --- | --- | --- | --- | --- | --- | --- | --- | --- | --- | --- | --- | --- |
| COc1cc(/C=C/c2ccc(O)cc2)cc(OC)c1 [Pterostilbene, 3,5-Dimethoxy-4′-hydroxystilbene] | 33.3 | 63.4 | 74.2 | 100 | 100 | 100 | ≥ 32 | 100 | 389^bc g/d | 151 | 151 | 2.8^b | equivalent or superior | 10 | 28 | 89 |
| Oc1ccc(/C=C/c2cc(O)cc(O)c2)cc1 [Resveratrol] | – | – | – | – | – | – | – | 100 | 381^bcd g/d | 149 | 149 | 2.95 | equivalent or superior | 10 | 29 | 87 |
| O=C(O)c1cc(O)c(O)c(O)c1 [Gallic acid, gallic acid, reference compound] | 0 | 0 | 0 | 0 | 26 | 32 | – | – | – | – | – | – | – | – | – | – |
| N#CC(c1ccc(Cl)cc1)c1c(Cl)cc(-n2ncc(=O)[nH]c2=O)cc1Cl (stereo not shown) [Diclazuril, diclazuril, reference compound] | 0 | 0 | 0 | 0 | 35 | 44 | – | – | – | – | – | – | – | – | – | – |
| CC[C@@H](C(=O)[C@@H](C)[C@@H](O)[C@H](C)[C@@H]1O[C@@H]([C@@H](CC)C(=O)O)CC[C@@H]1C)[C@H]1O[C@]2(C=C[C@@H](O)[C@]3(CC[C@@](C)([C@H]4CC[C@](O)(CC)[C@H](C)O4)O3)O2)[C@H](C)C[C@@H]1C [Salinomycin, salinomycin, reference compound] | – | – | – | – | – | – | – | 100 | 360^cd g/d | 149 | 149 | 2.3^c | – | 10 | 23 | 82 |
| COc1cc(O)cc(/C=C/c2ccc(O)cc2)c1 [Pinostilbene, 3-Methoxy-4′,5-dihydroxy-trans-stilbene] | 0 | 0 | 0 | 0 | 50.5 | 61.3 | ≥ 250 | – | – | – | – | – | – | – | – | – |
